Results as given in patent US8067627B2, “Zinc-monocysteine complex and method of using zinc-cysteine complexes” (priority 2000, dated 2011).

Experiments:
Format in all cases: cell-based
[1] = system: metallothionein; assay: Metallothionein in cultured retinal pigment epithelial cells; conditions: 0, 15, 30 or 100 μM, compared with zinc acetate, zinc chloride, zinc sulfate
Protocol: (§1) The biological efficacy was tested by adding 0, 15, 30 or 100 μM of zinc cysteine to cultured retinal pigment epithelial cells in comparison to zinc salts (zinc acetate, zinc chloride, and zinc sulfate).
(§2) The complex of zinc-cysteine increased the activity of antioxidant enzymes catalase and glutathione peroxidase, and the antioxidant protein metallothionein in cultured retinal pigment epithelial cells more efficiently and potently than zinc acetate, zinc chloride, and zinc sulfate. […] The zinc-cysteine complex may be readily absorbed and distributed inside the cell to provide beneficial needs in regulating the antioxidant economy.

[2] = system: catalase; assay: Catalase activity in cultured retinal pigment epithelial cells; conditions: 0, 15, 30 or 100 μM, compared with zinc acetate, zinc chloride, zinc sulfate
Protocol: as §1, §2

[3] = system: glutathione peroxidase; assay: Glutathione peroxidase activity in cultured retinal pigment epithelial cells; conditions: 0, 15, 30 or 100 μM, compared with zinc acetate, zinc chloride, zinc sulfate
Protocol: as §1, §2

[4] = system: RPE cells; assay: Protection of RPE cells from increasing hydrogen peroxide concentrations; conditions: compared with the zinc salts (zinc acetate, zinc chloride, zinc sulfate)
Protocol: as §1, §2

Compound	antioxidant protein metallothionein [1]	activity of antioxidant enzyme catalase [2]	activity of antioxidant enzyme glutathione peroxidase [3]	protecting RPE cells from increasing hydrogen peroxide concentrations [4]
N[C@@H](CS)C(=O)O [cysteine]	did not have an effect	did not have an effect		
NC1C[S][Zn][O]C1=O (stereo not drawn) [zinc-cysteine, zinc-monocysteine complex]	increased	increased	increased	more potent
